From article PMC12325182, “Discovery of novel and potent celastrol derivatives as PRDX1 inhibitors for cancer therapy through structure-based virtual screening” (Frontiers in Pharmacology, 2025)
Read-outs that look alike come from different tables or passages of the source.

Key:
PRDX1 [1] = target: T1, PRDX1 (Homo sapiens, UniProt Q06830); assay: PRDX1 inhibition assay; assay type: biochemical
T1 sequence (Q06830 1-199): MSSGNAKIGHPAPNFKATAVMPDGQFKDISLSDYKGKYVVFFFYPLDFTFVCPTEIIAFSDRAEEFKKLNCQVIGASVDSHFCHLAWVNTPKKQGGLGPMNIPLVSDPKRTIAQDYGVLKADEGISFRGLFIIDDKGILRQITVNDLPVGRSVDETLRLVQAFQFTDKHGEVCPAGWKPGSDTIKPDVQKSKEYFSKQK
Protocol: The cells were purchased from the American Type Culture Collection (ATCC) (Manassas, VA, United States). Cells were cultured in RPMI-1640 medium supplemented with 10% FBS, 50 units/mL penicillin, and 50 μg/mL streptomycin, and maintained at 37°C in a 5% CO2 humidified culture environment. CPs 1-5 were purchased from WuXi AppTec. Human PRDX1 proteins were purchased from Abcam (Cambridge, MA, United States).
First, […] buffer (20 mM HEPES, 5 mM EDTA, 5 μM cofactor A, 2 μM cofactor B, and 300 μM NADPH) was added to a 96-well plate. The test compounds at the designated concentration (0.02–2 nM, with 1.5-fold dilution) were incubated with PRDX1 at 37°C for 25 min, and then the co-incubated mixture was added to each well to a final concentration of 200 nM PRDX1. Finally, 200 μM H2O2 was added to each well to initiate the enzyme reaction cycle. The oxidation of NADPH was determined by the absorption value at 340 nm. Read plate values for 90 s for one cycle and repeat for 20 cycles. The positive control (celastrol, concentrations 0.06–64 μM) was tested in parallel under identical experimental conditions. Three independent replicate experiments were performed.

A549 lung cancer cells = assay: MTT assay; assay type: cell-based; conditions: Homo sapiens, read-out: IC50 (μM) A549
Protocol: (§1) Cells were seeded in 96-well plates at 5 ×10^4 cells/well and cultured overnight at 37°C under 5% CO2. After medium removal, cells were treated with serially diluted compounds (0.04–163.84 μM) or vehicle control (0.1% DMSO) and incubated for 72 h. Subsequently, 20 μL of MTT solution (5 mg/mL) was added to each well, and incubation was continued for 4 h. Add 150 μL of DMSO and shake for 10 min to fully dissolve the crystal. Finally, the absorbance was measured at 570 nm using a microplate reader. Cell viability was calculated as (ODcompound - ODblank)/(ODvehicle - ODblank) × 100%. The half inhibitory concentration (IC50) was calculated from the dose-response curve using Prism 8.0 software. Three independent replicate experiments were performed.

[2] = tested on: BEAS-2B normal lung cells; assay: MTT assay; assay type: cell-based; conditions: Homo sapiens, 72 h
Protocol: as §1

PRDX1 [3] = target: T1, PRDX1; assay: MST assay; assay type: binding
Protocol: The MST assays were carried out in a buffer composed of 50 mM Tris, 200 mM NaCl, and 0.1% (v/v) TWEEN20. PRDX1 was tagged with the MO-L011 protein labeling kit (RED-NHS second Generation). The diluted compounds were combined with the tagged PRDX1 protein and allowed to stand at room temperature for 5 minutes. Subsequently, the reaction mixture was loaded into capillaries, and measurements were taken using a Monolith NT.115 instrument.

[4] = tested on: HEK293 (embryonic kidney cells); assay: MTT assay; assay type: cell-based; conditions: Homo sapiens, HEK293, 72 h, read-out: IC50 (μM) HEK293
Protocol: as §1

[5] = tested on: HaCaT (immortalised keratinocytes); assay: MTT assay; assay type: cell-based; conditions: Homo sapiens, 72 h, normal cells, mean ± SD, n = 3
Protocol: as §1

[6] = tested on: HepG2 (hepatocellular carcinoma cells); assay: MTT assay; assay type: cell-based; conditions: Homo sapiens, HepG2, 72 h, read-out: IC50 (μM) HepG2
Protocol: as §1

LO2 (normal liver cells) = assay: MTT assay; assay type: cell-based; conditions: Homo sapiens, 72 h, read-out: IC50 (μM) LO2
Protocol: as §1

[7] = tested on: MCF-7 (breast adenocarcinoma cells); assay: MTT assay; assay type: cell-based; conditions: Homo sapiens, MCF7, 72 h, read-out: IC50 (μM) MCF-7
Protocol: as §1

[8] = mean ± SD, n = 3, read-out: PRDX1 (IC50)
[9] = A549, MTT, 72 h, mean ± SD, n = 3
[10] = MTT, normal lung cells, mean ± SD, n = 3, read-out: IC50 (μM) BEAS-2B

| Structure (SMILES) | IC50 (PRDX1 [1]; [8]) [nM] | IC50 (A549 lung cancer cells; [9]) [µM] | IC50 [2, 10] [µM] | IC50 (PRDX1 [1]) [nM] | Kd (PRDX1 [3]) [nM] | IC50 (A549 lung cancer cells; A549, 72 h) [µM] | IC50 ([2]; read-out: IC50 (μM) BEAS-2B) [µM] | IC50 [4] [µM] | IC50 [5] [µM] | IC50 [6] [µM] | IC50 (LO2 (normal liver cells)) [µM] | IC50 [7] [µM] |
| --- | --- | --- | --- | --- | --- | --- | --- | --- | --- | --- | --- | --- |
| CC1=C(CC(=O)/C=C/C2=CC(CO)=CC2)C(=O)C=C2C1=CC=C1[C@@]2(C)CC[C@@]2(C)C3C[C@](C)(C(=O)NCc4cccc(C(O)C(O)O)c4)CC[C@]3(C)CC[C@]12C (stereo partly drawn) [CP2] | 0.17 ± 0.02 | 0.46 ± 0.03 | > 100 |  |  |  |  |  |  |  |  |  |
| Cc1ncc(CNC(=O)[C@]2(C)CC[C@]3(C)CC[C@]4(C)C5=CC=C6C=C(CC(=O)/C=C/c7cccc(CO)c7)C(=O)C=C6C5CC[C@@]4(C)C3C2)nc1C(C)C(O)O (stereo partly drawn) [CP3] | 0.25 ± 0.01 | 0.57 ± 0.05 | > 100 |  |  |  |  |  |  |  |  |  |
| C=C(/C=C(C)\C=C\C(=O)CC1=CC2=CC=C3C(CC[C@@]4(C)C5C[C@](C)(C(=O)NCc6cccc(CC(O)O)c6)CC[C@]5(C)CC[C@]34C)C2=CC1=O)CO (stereo partly drawn) [CP5] | 0.36 ± 0.02 | 0.68 ± 0.06 | > 100 |  |  |  |  |  |  |  |  |  |
| C[C@@]1(C(=O)NCc2cccc(CC(O)O)c2)CC[C@]2(C)CC[C@]3(C)C4=CC=C5C=C(CC(=O)/C=C/c6cccc(CO)c6)C(=O)C=C5C4CC[C@@]3(C)C2C1 (stereo partly drawn) [CP4] | 0.31 ± 0.03 | 0.63 ± 0.04 | > 100 |  |  |  |  |  |  |  |  |  |
| CC1=C(O)C(=O)C=C2C1=CC=C1[C@@]2(C)CC[C@@]2(C)[C@@H]3C[C@](C)(C(=O)O)CC[C@]3(C)CC[C@]12C [Celastrol, celastrol] |  |  |  | 510 ± 40 | 320 ± 20 | 1.24 ± 0.08 | 0.45 ± 0.03 | 5.76 ± 0.12 | 17.4 ± 0.54 | 1.28 ± 0.05 | 24 ± 0.69 | 1.31 ± 0.06 |
